We go through 11 compounds from patent US11390629B2, “1,5-disubstituted 1,2,3-triazoles are inhibitors of Rac/Cdc42 GTPases” (UNIVERSITY OF PUERTO RICO, priority 2016, dated 2022).

The term bioavailability denotes dose-corrected exposure relative to a reference, in per cent. As a reminder, the inhibition is the drop in the measured response relative to a control, in per cent. What is called GI50 is the concentration that inhibits growth by half.

pIC50: −log10 of the molar value. Values joined by “and” are separate entries in the source; they are usually repeats but may differ in a detail not shown here. Equal values may be shown once. Read-outs that look alike come from different tables or passages of the source.

For one data set, the system named is Rac and Cdc42. The following applies: cited from earlier work.
The subject of a further data set is mammary tumor. The following applies: cited from earlier work.
The next data set deals with Cdc42 (Homo sapiens, UniProt P60953). The following applies: cited from earlier work.
For data set [1] the following is noted: after oral and intraperitoneal (i.p.) administration; cited from earlier work.
Data set [2] deals with T1, Rac1 (Homo sapiens, UniProt P63000).
T1 construct: host or cells: MDA-MB-435
The data set can be described thus: Rac activity inhibition by EHop-016 (reported), MDA-MB-435 metastatic cells. It counts as cell-based.

For data set [3], the target named is T1, Rac1. Particulars: cited from earlier work.
For a further data set, the system named is MDA-MB-231. The data set can be described thus: Migration inhibition, MDA-MB-231 (Table 1B). In kind it is cell-based. The following applies: Homo sapiens.
The next data set deals with MDA-MB-231 cells. The experiment in a line: Cell viability assay (CellTiter 96 / MTT), MDA-MB-231. The following applies: Homo sapiens, MDA-MB-231, read-out: GI50 (μM) MDA-MB-231.
Another data set deals with Rac. The following applies: read-out: IC50 (effective concentrations); cited from earlier work.

Sequence of Cdc42 (P60953 whole entry): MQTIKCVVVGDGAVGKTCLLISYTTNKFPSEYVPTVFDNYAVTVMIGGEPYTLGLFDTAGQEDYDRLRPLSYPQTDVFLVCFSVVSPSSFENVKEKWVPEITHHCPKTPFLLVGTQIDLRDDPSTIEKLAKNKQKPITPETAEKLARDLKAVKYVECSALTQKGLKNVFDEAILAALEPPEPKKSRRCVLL

As to `Cc1cc2cc(Nc3ccnc(Nc4ccc5[nH]c(C)cc5c4)n3)ccc2[nH]1` [Aza-1], the effective concentration range result in the data set with Rac and Cdc42 is “effective in the micromolar range”.
On to `COc1ccc(C2=NN(c3ccc(S(N)(=O)=O)cc3)C(c3ccccc3)C2)cc1` (centres unmarked) [CID2950007/ML141], for which, in the data set with Rac and Cdc42, the effective concentration range entry is given as “effective in the micromolar range”.
Turning to `CCn1c2ccccc2c2cc(Nc3ccnc(NCCCN4CCOCC4)n3)ccc21` [EHop-016], the “reduction of tumor growth” value with mammary tumor (10 mg/kg BW) is recorded as about 40%. In the data set with mammary tumor (25 mg/kg BW), the “effect on mammary tumor growth, metastasis and angiogenesis” value was “reduces mammary tumor growth, metastasis, and angiogenesis”; the toxicity entry was “without apparent toxicity”. Besides, the “concentrations inhibiting Cdc42 activity” value on Cdc42 is at least 10 µM. On Cdc42 (higher concentrations (>10 μM)), the “inhibition of Cdc42 activity” value is listed as 75%. Further, the pIC50 at Cdc42 (read-out: IC50 for Cdc42 inhibition) was about 5.10. Further, in data set [1], the average half-life is 4.5 h and the bioavailability was about 30%. Also, the “potency relative to NSC23766” value at Rac1 [2] is listed as about 100 ×. Besides, at Rac1 [3] (MDA-MB-435 metastatic cells, read-out: IC50 for Rac activity), the pIC50 was 5.96 and ~5.96. Besides, the “concentrations inhibiting Rac1 activity” value on Rac1 [3] is under 5 µM. Besides, the “inhibition of Rac activity” value on Rac1 [3] (higher concentrations (>10 μM)) is 100%. Besides, the pIC50 on Rac1 [3] (read-out: IC50 (Rac inhibitor)) is 5.96.
In the data set on MDA-MB-231, `CCn1c2ccccc2c2cc(-n3nncc3-c3cccc(C)c3)ccc21` [I-2, 9-ethyl-3-(5-(m-tolyl)-1H-1,2,3-triazol-1-yl)-9H-carbazole] showed an inhibition at 1 µM of at most 1%. In addition, the GI50 in the data set with MDA-MB-231 cells worked out at 1.33 µM.
In the data set with MDA-MB-231, `CCn1c2ccccc2c2cc(-n3nncc3-c3cccc(OC)c3)ccc21` [I-3, 9-ethyl-3-(5-(3-methoxyphenyl)-1H-1,2,3-triazol-1-yl)-9H-carbazole] had an inhibition at 1 µM of at most 1%. For the same compound, the GI50 with MDA-MB-231 cells is 0.248 µM.
Regarding `CCn1c2ccccc2c2cc(-n3nncc3-c3cccnc3)ccc21` [I-4, 9-ethyl-3-(5-(pyridin-3-yl)-1H-1,2,3-triazol-1-yl)-9H-carbazole], the inhibition at 10 µM with MDA-MB-231 turned out to be 65.1%. Also, the GI50 in the data set on MDA-MB-231 cells was over 50 µM.
In the case of `CCn1c2ccccc2c2cc(-n3nncc3-c3ccsc3)ccc21` [I-5, 9-ethyl-3-(5-(thiophen-3-yl)-1H-1,2,3-triazol-1-yl)-9H-carbazole], testing at 1 µM with MDA-MB-231 gave an inhibition of 2.4%. Further, the GI50 in the data set with MDA-MB-231 cells turned out to be 0.408 µM.
Regarding `CCn1c2ccccc2c2cc(-n3nncc3-c3ccccn3)ccc21` [I-6, 9-ethyl-3-(5-(pyridin-2-yl)-1H-1,2,3-triazol-1-yl)-9H-carbazole], at 10 µM the inhibition with MDA-MB-231 was 28%. The GI50 in the data set with MDA-MB-231 cells was over 50 µM.
In the data set on MDA-MB-231, `CCn1c2ccccc2c2cc(-n3nncc3-c3ccc(Oc4ccccc4)cc3)ccc21` [I-7] came in with an inhibition at 10 µM of 30.8%. Further, in the data set with MDA-MB-231 cells, the concentration for 50% growth inhibition (GI50) was over 50 µM.
As for `CCn1c2ccccc2c2cc(-n3nncc3CCO)ccc21` [I-8, 2-(1-(9-ethyl-9H-carbazol-3-yl)-1H-1,2,3-triazol-5-yl)ethan-1-ol], the GI50 in the data set with MDA-MB-231 cells was over 50 µM.
Take `CCN(CC)CCCC(C)Nc1nc(C)cc(Nc2ccc3nc(C)cc(N)c3c2)n1` (centres unmarked) [NSC23766]: the pIC50 with Rac was under 4.12.
